Measurements: patent US12264158B2, “Protein kinase MKK4 inhibitors for promoting liver regeneration or reducing or preventing hepatocyte death” (HEPAREGENIX GMBH, priority 2018, dated 2025)

Legend:
MEKK2 = target: T1, MEKK2 (Homo sapiens, UniProt Q9Y2U5); assay: Radiometric protein kinase assay, MEKK2; format: biochemical; settings: substrate Casein, ATP 0.2 μM; read-out: MEKK2, potency derived from IC50-values
T1 construct: purchased ProQinase #0583-0000-1
T1 sequence (Q9Y2U5 1-619): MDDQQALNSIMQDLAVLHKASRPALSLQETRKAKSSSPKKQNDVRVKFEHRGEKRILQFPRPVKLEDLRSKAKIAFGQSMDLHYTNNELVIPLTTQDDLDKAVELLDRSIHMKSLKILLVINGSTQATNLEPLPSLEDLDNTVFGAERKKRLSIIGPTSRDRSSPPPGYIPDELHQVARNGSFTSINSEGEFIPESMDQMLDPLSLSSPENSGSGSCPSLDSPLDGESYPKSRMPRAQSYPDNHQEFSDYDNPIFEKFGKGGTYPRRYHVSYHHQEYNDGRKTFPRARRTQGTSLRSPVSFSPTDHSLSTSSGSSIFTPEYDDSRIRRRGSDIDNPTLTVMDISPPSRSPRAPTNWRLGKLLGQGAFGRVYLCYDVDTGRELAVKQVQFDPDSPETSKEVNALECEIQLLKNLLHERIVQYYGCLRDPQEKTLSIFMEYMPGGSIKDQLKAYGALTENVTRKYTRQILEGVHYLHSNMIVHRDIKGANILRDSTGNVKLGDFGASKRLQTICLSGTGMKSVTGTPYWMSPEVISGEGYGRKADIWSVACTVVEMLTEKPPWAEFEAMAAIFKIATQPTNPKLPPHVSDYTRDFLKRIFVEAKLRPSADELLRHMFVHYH
Experimental: A radiometric protein kinase assay was used for measuring the kinase activity of the respective protein kinases. All kinase assays were performed in 96-well polypropylene plates. After the reactions were stopped, the assay mixtures were transferred to 96-well MSFC filter-plates (Millipore). The reaction mix was passed through the filter membrane by aspiration, the membrane was washed 3 times with 150 mM H3PO4, once with ethanol, dried and liquid scintillation cocktail was added. Radioactivity was determined by counting of the samples in a Microbeta multiwell scintillation counter (Wallac).

MKK4 = target: T2, MKK4 (Homo sapiens, UniProt P45985); assay: KINOMEscan competition binding assay, MKK4 potency; settings: concentration of 100 nM
T2 construct: S84/D399; host or cells: HEK-293
T2 sequence (P45985 84-399): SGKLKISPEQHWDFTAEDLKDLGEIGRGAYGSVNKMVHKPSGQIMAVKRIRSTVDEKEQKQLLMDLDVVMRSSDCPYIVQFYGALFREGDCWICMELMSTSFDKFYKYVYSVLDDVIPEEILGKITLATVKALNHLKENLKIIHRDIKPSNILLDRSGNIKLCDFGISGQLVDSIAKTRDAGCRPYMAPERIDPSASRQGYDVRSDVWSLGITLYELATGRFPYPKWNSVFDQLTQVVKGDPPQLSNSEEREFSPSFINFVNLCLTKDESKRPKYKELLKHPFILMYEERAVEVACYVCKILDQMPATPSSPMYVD
Experimental: (§1) The assay was performed by combining three components: DNA-tagged kinase; immobilized ligand; and a test compound. The ability of the test compound to compete with the immobilized ligand was measured via quantitative PCR of the DNA tag. The technology is described in detail in Fabian, M. A. et al. A small molecule-kinase interaction map for clinical kinase inhibitors. Nat. […] M. W. et al. A quantitative analysis of kinase inhibitor selectivity, Nat.
(§2) For investigation of the affinity to MKK4, MKK7 and JNK1, the kinases were produced in HEK-293 cells and subsequently tagged with DNA for qPCR detection. […] The liganded beads were blocked with excess biotin and washed with blocking buffer (SEABLOCK™ (Pierce), 1% BSA, 0.05% TWEEN®20, 1 mM DTT) to remove unbound ligand and to reduce nonspecific binding. […] All reactions were performed in polystyrene 96-well plates in a final volume of 0.135 mL. […] The kinase concentration in the eluates was measured by qPCR.
(§3) The test compounds were provided as 10 mM stock solutions. The test solutions at indicated final concentrations were prepared at DiscoverX.

JNK1 = target: T3, JNK1 (Homo sapiens, UniProt P45983); assay: KINOMEscan competition binding assay, selectivity against off-target JNK1; settings: concentration of 100 nM
T3 construct: M1/Q384; host or cells: HEK-293
Experimental: as §1, §2, §3

BRaf = BRaf (Homo sapiens, UniProt P15056); assay: KINOMEscan competition binding assay, selectivity against off-target BRaf; settings: concentration of 100 nM
Experimental: as §1, §3

MKK7 = target: T4, MKK7 (Homo sapiens, UniProt O14733); assay: KINOMEscan competition binding assay, selectivity against off-target MKK7; settings: concentration of 100 nM
T4 construct: M1/R419; host or cells: HEK-293
T4 sequence (O14733 1-419): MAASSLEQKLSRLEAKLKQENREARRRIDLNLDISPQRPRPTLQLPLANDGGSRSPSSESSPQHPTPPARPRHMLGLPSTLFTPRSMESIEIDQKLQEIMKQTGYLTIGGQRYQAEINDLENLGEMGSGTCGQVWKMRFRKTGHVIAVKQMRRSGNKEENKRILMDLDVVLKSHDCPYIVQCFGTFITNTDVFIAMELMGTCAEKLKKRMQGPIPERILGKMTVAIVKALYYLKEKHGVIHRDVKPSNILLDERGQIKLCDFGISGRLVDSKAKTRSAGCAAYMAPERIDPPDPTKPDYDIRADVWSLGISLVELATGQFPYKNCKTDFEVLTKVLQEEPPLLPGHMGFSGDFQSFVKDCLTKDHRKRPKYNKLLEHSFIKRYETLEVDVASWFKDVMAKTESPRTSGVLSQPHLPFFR
Experimental: as §1, §2, §3

T3 sequence (P45983 1-384 isoform P45983-2): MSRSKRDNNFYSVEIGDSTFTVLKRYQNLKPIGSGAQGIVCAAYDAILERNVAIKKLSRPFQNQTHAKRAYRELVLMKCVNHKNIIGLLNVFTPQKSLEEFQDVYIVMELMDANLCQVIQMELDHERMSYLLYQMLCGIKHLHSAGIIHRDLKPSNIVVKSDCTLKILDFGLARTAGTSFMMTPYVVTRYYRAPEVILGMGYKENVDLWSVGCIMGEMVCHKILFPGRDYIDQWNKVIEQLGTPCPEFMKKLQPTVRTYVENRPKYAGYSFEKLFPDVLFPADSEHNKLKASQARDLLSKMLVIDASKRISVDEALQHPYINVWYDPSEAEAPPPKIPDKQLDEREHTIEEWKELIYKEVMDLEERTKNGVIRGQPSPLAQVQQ
Chain of BRaf (P15056 whole entry): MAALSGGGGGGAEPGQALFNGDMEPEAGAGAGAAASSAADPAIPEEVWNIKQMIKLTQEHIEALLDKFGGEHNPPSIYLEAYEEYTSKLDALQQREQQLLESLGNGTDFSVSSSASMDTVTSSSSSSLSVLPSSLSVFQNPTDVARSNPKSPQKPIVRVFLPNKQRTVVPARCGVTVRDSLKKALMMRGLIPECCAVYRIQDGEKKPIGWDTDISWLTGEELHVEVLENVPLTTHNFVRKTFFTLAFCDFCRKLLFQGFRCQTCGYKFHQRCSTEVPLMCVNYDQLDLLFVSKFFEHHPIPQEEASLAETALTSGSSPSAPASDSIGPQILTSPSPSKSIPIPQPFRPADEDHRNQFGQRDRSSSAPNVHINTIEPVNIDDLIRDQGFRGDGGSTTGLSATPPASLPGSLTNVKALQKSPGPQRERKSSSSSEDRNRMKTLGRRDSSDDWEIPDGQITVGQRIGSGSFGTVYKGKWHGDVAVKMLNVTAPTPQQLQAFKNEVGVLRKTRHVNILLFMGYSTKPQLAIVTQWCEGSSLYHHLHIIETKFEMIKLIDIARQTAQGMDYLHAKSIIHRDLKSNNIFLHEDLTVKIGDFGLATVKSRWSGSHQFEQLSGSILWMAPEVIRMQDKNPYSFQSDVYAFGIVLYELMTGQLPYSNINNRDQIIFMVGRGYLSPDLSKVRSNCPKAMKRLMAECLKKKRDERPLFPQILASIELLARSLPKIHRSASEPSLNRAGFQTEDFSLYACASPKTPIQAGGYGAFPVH

SMILES | IC50 (MEKK2) [µM] | MKK4, residual percent of control binding (PoC) (MKK4) | Selectivity vs. JNK1, ratio PoC(JNK1)/PoC(MKK4) (JNK1) | Selectivity vs. BRaf, ratio PoC(BRaf)/PoC(MKK4) (BRaf) | Selectivity vs. MKK7, ratio PoC(MKK7)/PoC(MKK4) (MKK7)
CCCS(=O)(=O)Nc1ccc(F)c(C(=O)c2n[nH]c3ncc(-c4ccc(F)cc4C)cc23)c1F [Example 4, N-(2,4-difluoro-3-(5-(4-fluoro-2-methylphenyl)-1H-pyrazo-lo[3,4-b]-pyri-dine-3-car-bonyl)-phenyl)-propane-1-sulfonamide] | > 10 |  |  |  | 
CCCS(=O)(=O)Nc1ccc(F)c(C(=O)c2n[nH]c3ncc(-c4ccc(OC)cc4Cl)cc23)c1F [Example 5, N-(3-(5-(2-chloro-4-methoxy-phenyl)-1H-pyrazolo[3,4-b]-pyridine-3-carbonyl)-2,4-difluorophenyl)propane-1-sulfonamide] | > 10 |  |  |  | 
CCCS(=O)(=O)Nc1ccc(F)c(C(=O)c2n[nH]c3ncc(-c4ccc(Cl)c(C(F)(F)F)c4)cc23)c1F [Example 36, N-(3-(5-(4-chloro-3-(trifluoromethyl)phenyl)-1H-pyrazolo[3,4-13]-pyridine-3-carbonyl)-2,4-difluorophenyl)-propane-1-sulfonamide] |  | + (10 ≤ PoC < 30) | + (10 > PoC(JNK1)/PoC(MKK4) ≥ 3) | O (PoC(BRaf)/PoC(MKK4) < 3) | + (10 > PoC(MKK7)/PoC(MKK4) ≥ 3)
Cc1cc(F)ccc1-c1cnc2[nH]nc(C(=O)c3cccc(NS(C)(=O)=O)c3F)c2c1 [Example 39, N-(2-fluoro-3-(5-(4-fluoro-2-methylphenyl)-1H-pyrazo-lo[3,4-b]pyridine-3-carbonyl)-phenyl)methanesulfonamide] | > 10 |  |  |  | 
CS(=O)(=O)Nc1cccc(C(=O)c2n[nH]c3ncc(-c4ccc5c(c4)OCCO5)cc23)c1F [Example 40, N-(3-(5-(2,3-dihydro-benzo-[b][1,4]dioxin-6-yl)-1H-pyrazolo[3,4-b]pyridine-3-carbonyl)-2-fluoro-phenyl)-methanesulfonamide] | > 10 |  |  |  | 
CCCCS(=O)(=O)Nc1cccc(C(=O)c2n[nH]c3ncc(-c4ccc(OC)cc4Cl)cc23)c1F [Example 41, N-(3-(5-(2-chloro-4-methoxy-phenyl)-1H-pyrazolo[3,4-b]pyridine-3-carbonyl)-2-fluorophenyl)-butane-1-sulfonamide] | > 10 |  |  |  | 
CCCCS(=O)(=O)Nc1cccc(C(=O)c2n[nH]c3ncc(-c4ccc(F)cc4C)cc23)c1F [Example 42, N-(2-fluoro-3-(5-(4-fluoro-2-methylphenyl)-1H-pyrazo-lo[3,4-b]pyridine-3-carbonyl)-phenyl)butane-1-sulfonamide] | > 10 |  |  |  | 
CCCCS(=O)(=O)Nc1cccc(C(=O)c2n[nH]c3ncc(-c4ccc5c(c4)OCCO5)cc23)c1F [Example 43, N-(3-(5-(2,3-dihydro-benzo-[b][1,4]dioxin-6-yl)-1H-pyrazolo[3,4-b]-pyridine-3-carbonyl)-2-fluorophenyl)-butane-1-sulfonamide] |  | + (10 ≤ PoC < 30) | + (10 > PoC(JNK1)/PoC(MKK4) ≥ 3) | + (10 > PoC(BRaf)/PoC(MKK4) ≥ 3) | + (10 > PoC(MKK7)/PoC(MKK4) ≥ 3)
CCCS(=O)(=O)Nc1ccc(F)c(NC(=O)c2n[nH]c3ncc(-c4ccc(Cl)cc4)cc23)c1F [Example 45, 5-(4-chlorophenyl)-N-(2,6-difluoro-3-(propylsulfonamido)phenyl)-1H-pyrazolo[3,4-b]pyridine-3-carboxamide] |  | O (PoC ≥ 30) | O (PoC(JNK1)/PoC(MKK4) < 3) | O (PoC(BRaf)/PoC(MKK4) < 3) | O (PoC(MKK7)/PoC(MKK4) < 3)
CCCS(=O)(=O)Nc1ccc(F)c(Sc2n[nH]c3ncc(-c4ccc(Cl)cc4)cc23)c1F [Example 46, N-(3-((5-(4-chlorophenyl)-1H-pyrazolo[3,4-b]pyridin-3-yl)thio)-2,4-difluorophenyl)propane-1-sulfonamide] |  | O (PoC ≥ 30) | O (PoC(JNK1)/PoC(MKK4) < 3) | O (PoC(BRaf)/PoC(MKK4) < 3) | O (PoC(MKK7)/PoC(MKK4) < 3)
CCCS(=O)(=O)Nc1ccc(F)c([S+]([O-])c2n[nH]c3ncc(-c4ccc(Cl)cc4)cc23)c1F (stereo not shown) [Example 47, N-(3-((5-(4-chlorophenyl)-1H-pyrazolo[3,4-b]pyridin-3-yl)sulfinyl)-2,4-difluorophenyl)propane-1-sulfonamide] |  | O (PoC ≥ 30) | O (PoC(JNK1)/PoC(MKK4) < 3) | O (PoC(BRaf)/PoC(MKK4) < 3) | O (PoC(MKK7)/PoC(MKK4) < 3)
CCCS(=O)(=O)Nc1ccc(F)c(S(=O)(=O)c2n[nH]c3ncc(-c4ccc(Cl)cc4)cc23)c1F [Example 48, N-(3-((5-(4-chlorophenyl)-1H-pyrazolo[3,4-b]pyridin-3-yl)sulfonyl)-2,4-difluorophenyl)propane-1-sulfonamide] |  | O (PoC ≥ 30) | O (PoC(JNK1)/PoC(MKK4) < 3) | O (PoC(BRaf)/PoC(MKK4) < 3) | O (PoC(MKK7)/PoC(MKK4) < 3)
CCCS(=O)(=O)Nc1ccc(F)c(Cc2n[nH]c3ncc(-c4ccc(Cl)cc4)cc23)c1F [Example 50, N-(3-((5-(4-chlorophenyl)-1H-pyrazolo[3,4-b]pyridin-3-yl)methyl)-2,4-difluorophenyl)propane-1-sulfonamide] |  | O (PoC ≥ 30) | O (PoC(JNK1)/PoC(MKK4) < 3) | O (PoC(BRaf)/PoC(MKK4) < 3) | O (PoC(MKK7)/PoC(MKK4) < 3)
CS(=O)(=O)Nc1ccc(F)c(C(=O)c2n[nH]c3ncc(-c4ccc(S(N)(=O)=O)cc4)cc23)c1F [Example 51b, 4-(3-(2,6-difluoro-3-(methylsulfonamido)benzoyl)-1H-pyrazolo[3,4-b]pyridin-5-yl) benzenesulfonamide] | 1 to 10 |  |  |  | 
CCCCS(=O)(=O)Nc1ccc(F)c(C(=O)c2n[nH]c3ncc(-c4ccc(S(N)(=O)=O)cc4)cc23)c1F [Example 51c, 4-(3-(3-(butylsulfonamido)-2,6-difluorobenzoyl)-1H-pyrazolo[3,4-b]pyridin-5-yl) benzenesulfonamide] | 1 to 10 |  |  |  | 
CCCS(=O)(=O)Nc1ccc(F)c(C(=O)c2n[nH]c3ncc(-c4ccc(NS(C)(=O)=O)cc4)cc23)c1F [Example 51g, N-(2,4-difluoro-3-(5-(4-(methylsulfonamido)phenyl)-1H-pyrazolo[3,4-b]pyridine-3-carbonyl)phenyl)propane-1-sulfonamide] | 1 to 10 |  |  |  | 
